Results reported in ChEMBL document CHEMBL1649104, “Benzofuran Derivatives as Potent, Orally Active S1P1 Receptor Agonists: A Preclinical Lead Molecule for MS” (ACS Med Chem Lett, 2011).
Values belong to the molecule of their own block, whether it stands above or below them. Active and inactive are the calls of the source. The rule behind the calls is not given here.

Experiments:
[1] = target: T1, Sphingosine 1-phosphate receptor 3 (Homo sapiens, UniProt Q99500); experiment: Agonist activity at human S1P3R expressed in CHO cells by Ca(2+) mobilization assay; type: functional, cell-based
T1 sequence (Q99500 whole entry): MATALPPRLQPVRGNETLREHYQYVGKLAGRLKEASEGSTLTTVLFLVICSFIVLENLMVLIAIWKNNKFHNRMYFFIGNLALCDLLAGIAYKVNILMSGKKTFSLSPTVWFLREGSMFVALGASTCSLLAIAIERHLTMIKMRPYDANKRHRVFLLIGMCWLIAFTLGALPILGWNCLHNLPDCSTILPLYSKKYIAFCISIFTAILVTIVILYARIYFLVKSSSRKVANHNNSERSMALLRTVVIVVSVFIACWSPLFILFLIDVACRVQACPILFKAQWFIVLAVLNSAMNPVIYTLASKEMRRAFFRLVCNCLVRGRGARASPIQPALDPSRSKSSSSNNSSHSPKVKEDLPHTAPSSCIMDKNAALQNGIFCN

[2] = target: T2, Sphingosine 1-phosphate receptor 1 (Homo sapiens, UniProt P21453); experiment: Induction of human GFP-tagged chimeric S1P1R internalization in human U2Os cells by fluorescence microscopy; type: cell-based
T2 sequence (P21453 whole entry): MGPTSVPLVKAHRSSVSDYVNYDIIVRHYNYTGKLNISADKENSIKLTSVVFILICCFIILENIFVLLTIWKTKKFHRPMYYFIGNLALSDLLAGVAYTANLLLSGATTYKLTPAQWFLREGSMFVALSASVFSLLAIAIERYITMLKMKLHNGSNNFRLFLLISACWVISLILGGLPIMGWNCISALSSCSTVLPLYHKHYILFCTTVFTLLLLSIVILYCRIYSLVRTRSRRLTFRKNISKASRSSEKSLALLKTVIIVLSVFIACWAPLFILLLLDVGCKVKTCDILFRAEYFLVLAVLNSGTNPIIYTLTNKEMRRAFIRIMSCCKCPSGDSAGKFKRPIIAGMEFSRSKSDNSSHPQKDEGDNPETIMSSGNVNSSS

[3] = target: T2, Sphingosine 1-phosphate receptor 1; experiment: Induction of human GFP-tagged chimeric S1P1R internalization in human U2Os cells by fluorescence microscopy relative to 1-(4-(6-benzylbenzofuran-2-yl)-3-fluorobenzyl)azetidine-3-carboxylic acid; type: cell-based
[4] = target: T2, Sphingosine 1-phosphate receptor 1; experiment: Agonist activity at human S1P1R expressed in CHO cells assessed as stimulation of [35S]GTPgammaS binding; type: functional, cell-based
[5] = target: T1, Sphingosine 1-phosphate receptor 3; experiment: Displacement of [33P]S1P from human S1P3R expressed in CHO cell membranes
[6] = organism: Homo sapiens; experiment: Selectivity for human S1P1R over human S1P3R
[7] = tested on: Rattus norvegicus; experiment: Toxicity in telemetered Sprague-Dawley rat assessed as effect on heart rate at 20 mg/kg, po; type: organism-based; set-up: dose 20 mg/kg, route oral; conditions: in vivo
[8] = tested on: Rattus norvegicus; experiment: Toxicity in telemetered Sprague-Dawley rat assessed as effect on heart rate at 40 mg/kg, po; type: organism-based; set-up: dose 40 mg/kg, route oral; conditions: in vivo
[9] = Metabolic stability in human liver microsomes assessed as half life; type: ADME, Microsome
[10] = tested on: Rattus norvegicus; experiment: Lymphopenic activity in Lewis rat assessed as reduction in blood lymphocyte counts at 1 mg/kg, po measured 24 hrs post dose; type: functional
[11] = tested on: Rattus norvegicus; experiment: Lymphopenic activity in Lewis rat assessed as reduction in blood lymphocyte counts at 3 mg/kg, po measured 24 hrs post dose; type: functional
[12] = tested on: Rattus norvegicus; experiment: Lymphopenic activity in po dosed Lewis rat assessed as reduction in blood lymphocyte counts measured 24 hrs post dose; type: functional, organism-based
[13] = tested on: Mus musculus; experiment: Reversing disease course in experimental autoimmune encephalitis SJL mouse model of multiple sclerosis at 10 mg/kg, po; type: functional, organism-based; set-up: dose 10 mg/kg
[14] = Clearance in Sprague-Dawley rat at 1 mg/kg, iv or 3 mg/kg, po; type: ADME, organism-based; conditions: in vivo
[15] = Volume of distribution at steady state in Sprague-Dawley rat at 1 mg/kg, iv or 3 mg/kg, po; type: ADME, organism-based; conditions: in vivo, read-out: Vdss
[16] = Terminal half life in Sprague-Dawley rat at 1 mg/kg, iv or 3 mg/kg, po; type: ADME, organism-based; conditions: in vivo, read-out: beta t1/2 (converted)
[17] = Mean residence time in Sprague-Dawley rat at 1 mg/kg, iv or 3 mg/kg, po; type: ADME, organism-based; conditions: in vivo
[18] = Oral bioavailability in Sprague-Dawley rat 3 mg/kg; type: ADME, organism-based; conditions: in vivo
[19] = Clearance in cynomolgus monkey at 1 mg/kg, iv or 5 mg/kg, po; type: ADME, organism-based, Macaca fascicularis; conditions: in vivo
[20] = Volume of distribution at steady state in cynomolgus monkey at 1 mg/kg, iv or 5 mg/kg, po; type: ADME, organism-based, Macaca fascicularis; conditions: in vivo, read-out: Vdss
[21] = Terminal half life in cynomolgus monkey at 1 mg/kg, iv or 5 mg/kg, po; type: ADME, organism-based, Macaca fascicularis; conditions: in vivo, read-out: beta t1/2 (converted)
[22] = Mean residence time in cynomolgus monkey at 1 mg/kg, iv or 5 mg/kg, po; type: ADME, organism-based, Macaca fascicularis; conditions: in vivo
[23] = Oral bioavailability in cynomolgus monkey 5 mg/kg; type: ADME, organism-based, Macaca fascicularis; conditions: in vivo
[24] = Clearance in Beagle dog at 2 mg/kg, iv or 3 mg/kg, po; type: ADME, organism-based, Canis lupus familiaris; conditions: in vivo
[25] = Volume of distribution at steady state in Beagle dog at 2 mg/kg, iv or 3 mg/kg, po; type: ADME, organism-based, Canis lupus familiaris; conditions: in vivo, read-out: Vdss
[26] = Terminal half life in Beagle dog at 2 mg/kg, iv or 3 mg/kg, po; type: ADME, organism-based, Canis lupus familiaris; conditions: in vivo, read-out: beta t1/2 (converted)
[27] = Mean residence time in Beagle dog at 2 mg/kg, iv or 3 mg/kg, po; type: ADME, organism-based, Canis lupus familiaris; conditions: in vivo
[28] = Oral bioavailability in Beagle dog 3 mg/kg; type: ADME, organism-based, Canis lupus familiaris; conditions: in vivo
[29] = Inhibition of Cytochrome P450; type: ADME
[30] = Induction of Cytochrome P450; type: ADME
[31] = Mutagenic activity in Salmonella Typhimurium by Ames assay; type: toxicity; conditions: salmonella enterica subsp. enterica serovar typhimurium
[32] = target: Voltage-gated inwardly rectifying potassium channel KCNH2 (Homo sapiens, UniProt Q12809); experiment: Inhibition of human ERG by patch-clamp method
Voltage-gated inwardly rectifying potassium channel KCNH2, sequence (Q12809 whole entry): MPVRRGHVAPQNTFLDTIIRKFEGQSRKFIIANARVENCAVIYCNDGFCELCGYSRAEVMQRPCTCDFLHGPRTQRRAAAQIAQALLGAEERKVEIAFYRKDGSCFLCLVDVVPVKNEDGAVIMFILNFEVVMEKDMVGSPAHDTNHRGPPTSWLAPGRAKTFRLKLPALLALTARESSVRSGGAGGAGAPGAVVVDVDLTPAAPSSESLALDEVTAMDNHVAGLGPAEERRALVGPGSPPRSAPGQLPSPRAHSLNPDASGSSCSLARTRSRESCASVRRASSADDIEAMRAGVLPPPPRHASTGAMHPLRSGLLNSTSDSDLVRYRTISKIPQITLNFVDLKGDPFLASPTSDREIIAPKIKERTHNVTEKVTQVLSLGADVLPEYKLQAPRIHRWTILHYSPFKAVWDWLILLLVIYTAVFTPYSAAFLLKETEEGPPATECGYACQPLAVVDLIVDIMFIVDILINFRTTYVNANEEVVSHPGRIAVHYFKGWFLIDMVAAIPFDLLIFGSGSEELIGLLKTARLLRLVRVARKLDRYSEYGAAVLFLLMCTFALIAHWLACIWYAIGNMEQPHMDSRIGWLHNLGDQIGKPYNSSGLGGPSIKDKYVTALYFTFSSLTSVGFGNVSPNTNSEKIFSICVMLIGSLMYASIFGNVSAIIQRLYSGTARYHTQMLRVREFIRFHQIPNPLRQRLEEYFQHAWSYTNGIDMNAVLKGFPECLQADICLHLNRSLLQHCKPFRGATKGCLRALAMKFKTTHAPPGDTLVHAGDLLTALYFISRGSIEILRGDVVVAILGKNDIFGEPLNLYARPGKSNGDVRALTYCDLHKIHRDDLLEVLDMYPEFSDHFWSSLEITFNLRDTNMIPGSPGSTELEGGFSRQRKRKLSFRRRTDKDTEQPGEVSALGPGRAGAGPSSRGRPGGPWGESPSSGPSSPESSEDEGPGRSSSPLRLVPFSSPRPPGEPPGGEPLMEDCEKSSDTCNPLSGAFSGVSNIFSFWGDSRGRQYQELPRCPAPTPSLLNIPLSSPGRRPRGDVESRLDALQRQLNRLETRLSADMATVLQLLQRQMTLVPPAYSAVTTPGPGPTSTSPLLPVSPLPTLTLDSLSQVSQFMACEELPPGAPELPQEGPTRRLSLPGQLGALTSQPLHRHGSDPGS

[33] = Toxicity in rat assessed as No observed adverse effect level by 4 day repeated dose toxicity study; type: organism-based; conditions: in vivo
[34] = tested on: Rattus norvegicus; experiment: Toxicity in telemetered Sprague-Dawley rat assessed as increase in mean arterial pressure at 20 mg/kg, po measured 4 to 6 hrs post dose; type: organism-based, Artery; set-up: dose 20 mg/kg, route oral; conditions: in vivo
[35] = tested on: Rattus norvegicus; experiment: Toxicity in telemetered Sprague-Dawley rat assessed as increase in mean arterial pressure at 40 mg/kg, po measured 4 to 6 hrs post dose; type: organism-based, Artery; set-up: dose 40 mg/kg, route oral; conditions: in vivo

EC50 [1]: > 25000 nM
EC50 [2]: 424 nM
Efficacy [3]: 115%
Compound: O=C(O)C1CN(Cc2ccc(-c3cc4cc(C5CCCCC5)ccc4o3)nc2)C1

EC50 [1]: > 25000 nM
EC50 [2]: 653 nM
Efficacy [3]: 117%
Compound: CCCCOc1ccc2oc(-c3ccc(CN4CC(C(=O)O)C4)cc3OC)cc2c1

EC50 [1]: 25000 nM
EC50 [2]: 2290 nM
Efficacy [3]: 89%
Compound: CCCCOc1ccc2cc(-c3ccc(CN4CC(C(=O)O)C4)cc3)oc2c1

EC50 [4]: 350 nM
EC50 [1]: > 25000 nM
EC50 [2]: 2480 nM
Compound: CCCCc1ccc2oc(-c3ccc(CN4CC(C(=O)O)C4)cc3)cc2c1

EC50 [1]: 1900 nM
EC50 [2]: 150 nM
Compound: CC(C)Cc1ccc2oc(-c3ccc(CN4CC(C(=O)O)C4)cc3)cc2c1

IC50 [5]: > 10000 nM
Compound: CC(C)(C)c1ccc(-c2nnc(-c3ccc(CN4CC(C(=O)O)C4)cc3)o2)cc1

IC50 [5]: > 10000 nM
Compound: FC(F)(F)c1cccc(-c2noc(-c3cc(-c4ccccc4)c(C(F)(F)F)s3)n2)c1

IC50 [5]: > 10000 nM
Compound: CC(C)(C)c1ccc(-c2noc(-c3ccc(CN4CC(C(=O)O)C4)cc3)n2)cc1

Compound: O=C(O)C1CN(Cc2ccc(-c3cc4cc(C5CCCCC5)ccc4o3)c(F)c2)C1
EC50 [1]: > 25000 nM
EC50 [2]: 48 nM
Efficacy [3]: 100%

EC50 [1]: 4800 nM
EC50 [2]: 290 nM
Efficacy [3]: 156%
Compound: O=C(O)C1CN(Cc2ccc(-c3cc4cc(OCC5CC5)ccc4o3)c(F)c2)C1

EC50 [1]: > 7200 nM
Compound: CCCCOc1ccc2oc(-c3ccc(CN4CC(C(=O)O)C4)cc3)cc2c1

EC50 [1]: 10300 nM
EC50 [2]: 158 nM
Efficacy [3]: 104%
Compound: CCCCOc1ccc2oc(-c3ccc(CN4CC(C(=O)O)C4)cc3Cl)cc2c1

IC50 [5]: 12000 nM
Compound: CC(C)Cc1ccc(-c2nc(-c3ccc(CN4CC(C(=O)O)C4)cc3)no2)cc1

EC50 [1]: > 25000 nM
Compound: O=C(O)C1CN(Cc2ccc(-c3cc4cc(Oc5ccccc5)ccc4o3)cc2)C1

EC50 [4]: > 1000 nM
EC50 [1]: > 25000 nM
EC50 [2]: 5030 nM
Compound: O=C(O)C1CN(Cc2ccc(-c3cc4cc(-c5cccnc5)ccc4o3)cc2)C1

EC50 [4]: 600 nM
EC50 [1]: > 25000 nM
EC50 [2]: 460 nM
Compound: O=C(O)C1CN(Cc2ccc(-c3cc4cc(C5CCCCC5)ccc4o3)cc2)C1

EC50 [1]: > 25000 nM
EC50 [2]: 454 nM
Efficacy [3]: 71%
Compound: O=C(O)C1CN(Cc2ccc(-c3cc4cc(OCC5CCCC5)ccc4o3)c(F)c2)C1

EC50 [1]: 3430 nM
EC50 [2]: 253 nM
Efficacy [3]: 100%
Compound: O=C(O)C1CN(Cc2ccc(-c3cc4cc(Cc5ccccc5)ccc4o3)cc2F)C1

EC50 [4]: 440 nM
EC50 [1]: > 4300 nM
EC50 [2]: 2070 nM
Compound: O=C(O)C1CN(Cc2ccc(-c3cc4cc(Cc5ccccc5)ccc4o3)cc2)C1

EC50 [1]: 1440 nM
EC50 [2]: 620 nM
Selectivity ratio [6]: 2
Compound: O=C(O)C1CN(Cc2ccc(-c3cc4cc(N5CCCCC5)ccc4o3)cc2)C1

EC50 [1]: > 25000 nM
EC50 [2]: > 1000 nM
Compound: CCCCOc1ccc2oc(-c3ncc(CN4CC(C(=O)O)C4)s3)cc2c1

EC50 [1]: 27000 nM
EC50 [2]: 57 nM
Selectivity ratio [6]: > 1000
half-life [9]: > 1.5 h
clearance [14]: 2.3 mL/min/kg
Vd [15]: 1.7 L/kg
half-life [16]: 12.1 h
MRT [17]: 12.7 h
bioavailability [18]: 80%
clearance [19]: 5.15 mL/min/kg
Vd [20]: 1 L/kg
half-life [21]: 4.7 h
MRT [22]: 3.4 h
bioavailability [23]: 88%
clearance [24]: 4.43 mL/min/kg
Vd [25]: 2.2 L/kg
half-life [26]: 21.1 h
MRT [27]: 9 h
bioavailability [28]: 51%
inhibition (INH) [29]: Not Active
Activity [30]: Not Active
Compound: O=C(O)C1CN(Cc2ccc(-c3cc4cc(Cc5ccccc5)ccc4o3)c(F)c2)C1
Activity [7]: Non-toxic
Activity [8]: Non-toxic
inhibition in vivo at 1 mg/kg [10]: 75%
inhibition in vivo at 3 mg/kg [11]: 75%
inhibition [12]: Dose-dependent effect
inhibition [13]: Active
Activity [31]: Non-toxic
IC50 [32]: 17000 nM
NOAEL at 96 h [33]: 20 mg/kg
Activity [34]: Toxic
Activity [35]: Toxic

EC50 [1]: > 25000 nM
EC50 [2]: 354 nM
Compound: O=C(O)C1CN(Cc2ccc(-c3cc4cc(CCc5ccccc5)ccc4o3)cc2)C1
